The test concerns primary human trophoblasts. Nature of the test: Trophoblast proliferation assay (BrdU incorporation). It counts as cell-based. As to the method: Cell proliferation was determined by BrdU incorporation to examine the effects of NRP-5RG D6A on the proliferation of trophoblasts. EGF (0.8×10^−9 M) was used as a positive control, since studies have previously shown it plays a role in enhancing trophoblast proliferation (Maruo et al., 1992).
Initially cells were treated with NRP-5RG D6A (SEQ ID NO: 1), EGF and BrdU (0.05 μM) for 72 hrs. After the first 24 hrs, an 80% media change was carried out since BrdU is toxic over long incubation periods. Following 72 hrs of incubation, the reaction was stopped by fixation in 4% PFA. However, with this experimental design, most trophoblasts would form syncytia by the end of the 72 hrs, hindering accurate examination of the proliferative effect of NRP-5RG D6A on trophoblasts. […] This allowed analysis of proliferation of mononuclear trophoblasts.
Cell proliferation was evaluated over 24 hrs after seeding 1.3×10^5 cells/cm^2 in culture media (1% serum) treated with 0.05 μM BrdU, NRP-5RG D6A and EGF (FIG. 13).
A general note: Uptake of a labelled nucleoside into DNA is a usual measure of proliferation.

Where no end group is shown, it is not given here.

Results on one substance are retold here after US8138304B2, “Neural regeneration peptides and formulations thereof” (Neuren Pharmaceuticals Limited, priority 2005, dated 2012).

In the case of “REGRRAAPGRAGG-NH2 (listed as Homo sapiens) [SEQ ID NO: 1, 13-mer NRP analogue]”, the “trophoblast proliferation compared to the control” value (10^−13 M, 24 hrs, BrdU) is given as “no increase in proliferation”. The “increase in trophoblast proliferation” value (10^−14 M, 24 hrs, BrdU) was determined as 183.3±50.2%. For the same substance, the “trophoblast proliferation at other concentrations” value (any concentration other than 10^−14 M (higher concentrations, data not shown)) is listed as “no proliferative effect”.
